# Reference: patent US12312330B2, “1-((S)-1-(3-chloro-5-fluoro-2-((4-(1h-pyrazol-1-yl)-2-methylquinolin-8-yloxy)methyl)phenyl)ethyl)-imidazolidine-2,4-dione derivatives and related compounds as bradykinin (BK) B2 receptor antagonist for treating skin diseases” (Pharvaris GmbH, priority 2019, dated 2025)
# Target: T1, human bradykinin B2 receptor (hB2R) (Homo sapiens, UniProt P30411)
# T1 sequence (P30411 1-391): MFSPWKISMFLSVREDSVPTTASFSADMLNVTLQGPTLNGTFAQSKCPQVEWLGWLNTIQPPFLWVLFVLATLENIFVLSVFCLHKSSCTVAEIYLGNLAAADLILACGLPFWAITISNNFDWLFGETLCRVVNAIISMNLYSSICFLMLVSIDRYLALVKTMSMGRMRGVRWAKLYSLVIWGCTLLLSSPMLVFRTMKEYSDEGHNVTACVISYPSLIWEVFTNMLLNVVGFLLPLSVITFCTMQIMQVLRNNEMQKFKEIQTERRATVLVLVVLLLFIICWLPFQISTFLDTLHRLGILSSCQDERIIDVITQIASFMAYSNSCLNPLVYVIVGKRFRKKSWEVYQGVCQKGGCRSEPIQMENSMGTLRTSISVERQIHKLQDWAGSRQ
# Experiment: human bradykinin B2 receptor calcium mobilization (hB2R-CaM) assay
# Assay type: cell-based
# Conditions: antagonism of bradykinin (EC80) induced calcium mobilization, B2 Bradykinin Receptor Stable Cell Line HTS041C, 25 min pre-incubation; read-out: IC50-value towards human bradykinin B2 receptor (hB2R)
# Source text: The following cell-based human bradykinin B2 receptor calcium mobilization (hB2R-CaM) assay was used to determine the antagonistic activity of compounds selected from the example compounds Nos. 1 to 107 towards human bradykinin B2 receptor (hB2R). The assay is defined herein as a standard in vitro B2 receptor activity assay, which can be used to determine IC50 values of the compounds according to the present invention, e. g. the compounds shown in Examples 1-13.
# The antagonistic activity of compounds according to the present invention was investigated with the hB2R-CaM assay using the B2 Bradykinin Receptor Stable Cell Line HTS041C (Eurofins, St. Charles MO) and the FLIPR Calcium 6 Assay Kit (Molecular Devices, Wokingham, UK) according to the instructions of the providers. CaM assay measurements were performed with a Flexstation 3 System (Molecular Devices) which allows the precise addition of compounds (B2R antagonists) and bradykinin (B2R agonist) to the cells and adjacent continuous recording of the time-dependent CaM assay signals.
# HTS041C cells were cultured in high glucose DMEM cell culture medium (Lonza) supplemented with 10% heat-inactivated FBS (PAN Biotech), 10 mM HEPES, Penicillin/Streptomycin (200 U/mL, 200 μg/mL), lx non-essential amino acids (Lonza), and 250 μg/mL G418 (Invivogen) in cell incubator at 37° C. in a 5% CO2 atmosphere. One day before the CaM assay experiments cells were seeded in 200 μL DMEM cell culture medium with reduced FBS (5%) and without G418 on clear bottom black 96 well plates (ThermoFisher #165305). Cell starvation was carried out by incubation (37° C., 5% CO2) of 70.000 cells/well for 24 h to 28 h. Immediately prior calcium dye-loading the medium was carefully aspirated and cells were washed with Hank's balanced salt solution (HBSS, Gibco) containing Ca^2+, Mg^2+ and 20 mM HEPES, adjusted to pH 7.4 (HBSS+).
# For calcium dye-loading one FLIPR 6 assay aliquot was dissolved in 20 mL HBSS+. 150 μL of the dye loading solution was added to cell plate and incubated for 120 min at 37° C. and 5% CO2. After dye loading the cell plate was immediately transferred to the pre-warmed (37° C.) Flexstation 3 System for CaM assaying.
# Freshly prepared compound (B2 receptor antagonists) dilution series (8 pt, n=2) and bradykinin (B2 receptor agonist) solution in non-binding plates (Costar) were transferred to the Flexstation System (source plate) shortly before starting the experiment. Bradykinin was added in EC80 concentration determined in n>3 preliminary experiments with 8 pt concentration response curves (n=8)). CaM assay was executed by Flexstation 3 System starting with recording of calcium-sensitive dye fluorescence in bottom-read Flex modus with ex/em=485 nm/525 nm, cut off(em)=515 nm After 20 s, 50 μL of 4-fold concentrated compound dilutions were added to the cells resulting in a final DMSO (Sigma) concentration of 0.1% in the cell plate. CaM signals were monitored for 80 s after additions for detection of potential agonistic activities. Prior to bradykinin stimulus compound- and vehicle-treated cells were incubated for 25 min at 37° C. within the Flexstation System. Then 50 μL of a 5-fold concentrated bradykinin solution (HBSS+, 0.1% DMSO) was added to trigger CaM signals (Read out: Max-Min values) which were measured for 80 s post bradykinin stimulus.
# IC50 determinations were performed by 4 parameter logistic model curve fitting of the 8 pt (n=2) compound concentration response curves using XLFIT (IDBS) software.
row,Compound,IC50 [nM]
1,Cc1cc(-n2cc(F)cn2)c2cccc(OCc3c(Cl)cc(F)cc3[C@H](C)N3CC[C@H](O)C3=O)c2n1 [compound 28],101 to 500
2,Cc1cc(-n2cc(F)cn2)c2cccc(OCc3c(Cl)cc(F)cc3[C@H](C)N3C[C@H](C)OCC3=O)c2n1 [compound 38],11 to 100
3,Cc1cc(-n2cc(F)cn2)c2cccc(OCc3c(Cl)cc(F)cc3[C@H](C)N3CC[C@@H](OC(F)F)C3=O)c2n1 [compound 89],11 to 100
4,Cc1cc(-c2ncnn2C)c2cccc(OCc3c(Cl)cc(F)cc3[C@H](C)N3CCC[C@H](O)C3=O)c2n1 [compound 85],101 to 500
5,Cc1cc(-c2ncnn2C)c2cccc(OCc3c(Cl)cc(F)cc3[C@H](C)N3CC[C@@H](O)C3=O)c2n1 [compound 43],11 to 100
6,Cc1cc(-n2cc(F)cn2)c2cccc(OCc3c(Cl)cc(F)cc3[C@H](C)N3CC(=O)N(CCN(C)C)C3=O)c2n1 [compound 24],11 to 100
7,Cc1cc(-n2cc(F)cn2)c2cccc(OCc3c(Cl)cc(F)cc3[C@H](C)N3C[C@@H](O)CCC3=O)c2n1 [compound 45],≤ 10
8,Cc1cc(-n2cc(F)cn2)c2cccc(OCc3c(Cl)cc(F)cc3[C@H](C)N3CCNCC3=O)c2n1 [compound 57],11 to 100
9,Cc1cc(-n2cc(F)cn2)c2cccc(OCc3c(Cl)cc(F)cc3[C@H](C)N3C(=O)[C@@H](C)NC(=O)[C@@H]3C)c2n1 [compound 99],11 to 100
10,"Cc1cc(-n2cc(F)cn2)c2cccc(OCc3c(Cl)cc(F)cc3[C@H](C)N3CCOC(C)C3=O)c2n1 (single isomer, unassigned) [compound 35]",11 to 100
11,Cc1cc(-c2ncnn2C)c2cccc(OCc3c(Cl)cc(F)cc3[C@H](C)N3CC(=O)N(C)[C@@H](C)C3=O)c2n1 [compound 74],11 to 100
12,Cc1cc(-n2cc(F)cn2)c2cccc(OCc3c(Cl)cc(F)cc3[C@H](C)N3CCC(C)(C)C3=O)c2n1 [compound 64],11 to 100
13,Cc1cc(-n2cc(F)cn2)c2cccc(OCc3c(Cl)cc(F)cc3[C@H](C)N3CC(=O)NC(C)(C)C3=O)c2n1 [compound 102],11 to 100
14,Cc1cc(-n2cc(F)cn2)c2cccc(OCc3c(Cl)cc(F)cc3[C@H](C)N3CCC[C@@H](O)C3=O)c2n1 [compound 84],11 to 100
15,"Cc1cc(-n2cc(F)cn2)c2cccc(OCc3c(Cl)cc(F)cc3[C@H](C)N3C(=O)N(C4CC4)C(=O)C3C)c2n1 (single isomer, unassigned) [compound 30]",≤ 10
16,Cc1cc(-c2ncnn2C)c2cccc(OCc3c(Cl)cc(F)cc3[C@H](C)N3CC[C@H](F)C3=O)c2n1 [compound 91],≤ 10
17,Cc1cc(-n2cc(F)cn2)c2cccc(OCc3c(Cl)cc(F)cc3[C@H](C)N3CC(=O)N(C4CC4)C3=O)c2n1 [compound 17],11 to 100
18,"CCN1C(=O)C(C)N([C@@H](C)c2cc(F)cc(Cl)c2COc2cccc3c(-c4ncnn4C)cc(C)nc23)C1=O (single isomer, unassigned) [compound 54]",11 to 100
19,Cc1cc(-n2cc(F)cn2)c2cccc(OCc3c(Cl)cc(F)cc3[C@H](C)N3C[C@@H](C)OCC3=O)c2n1 [compound 39],11 to 100
20,Cc1cc(-n2cc(F)cn2)c2cccc(OCc3c(Cl)cc(F)cc3[C@H](C)N3CC(=O)NC3=O)c2n1 [compound 19],11 to 100

row,Compound,IC50 [nM]
1,Cc1cc(-n2cc(F)cn2)c2cccc(OCc3c(Cl)cc(F)cc3[C@H](C)N3CC(=O)N(CCO)C3=O)c2n1 [compound 15],≤ 10
2,"Cc1cc(-c2ncnn2C)c2cccc(OCc3c(Cl)cc(F)cc3[C@H](C)N3CC[C@@H](F)C3=O)c2n1 [Compound No. 5, (R)-1-((S)-1-(3-chloro-5-fluoro-2-((2-methyl-4-(1-methyl-1H-1,2,4-triazol-5-yl)quinolin-8-yloxy)methyl)phenyl)ethyl)-3-fluoropyrrolidin-2-one]",≤ 10
3,Cc1cc(-n2cc(F)cn2)c2cccc(OCc3c(Cl)cc(F)cc3[C@H](C)N3CC[C@H](Cl)C3=O)c2n1 [compound 37],≤ 10
4,Cc1cc(-n2cc(F)cn2)c2cccc(OCc3c(Cl)cc(F)cc3[C@H](C)N3CCN[C@H](C)C3=O)c2n1 [compound 77],11 to 100
5,Cc1cc(-n2cc(F)cn2)c2cccc(OCc3c(Cl)cc(F)cc3[C@H](C)N3CC(=O)N(C)[C@H](C)C3=O)c2n1 [compound 103],11 to 100
6,Cc1cc(-n2cc(F)cn2)c2cccc(OCc3c(Cl)cc(F)cc3[C@H](C)N3CC(=O)N(CC(=O)N(C)C)C3=O)c2n1 [compound 21],11 to 100
7,Cc1cc(-n2cc(F)cn2)c2cccc(OCc3c(Cl)cc(F)cc3[C@H](C)N3CC(C)CC3=O)c2n1 (stereo partly shown) [compound 62],11 to 100
8,Cc1cc(-c2ncnn2C)c2cccc(OCc3c(Cl)cc(F)cc3[C@H](C)N3C[C@H](C)OCC3=O)c2n1 [compound 41],≤ 10
9,Cc1cc(-n2cc(F)cn2)c2cccc(OCc3c(Cl)cc(F)cc3[C@H](C)N3CCCC3=O)c2n1 [compound 13],11 to 100
10,"Cc1cc(-c2ncnn2C)c2cccc(OCc3c(Cl)cc(F)cc3[C@H](C)N3C(=O)COCC3C)c2n1 (single isomer, unassigned) [compound 70]",11 to 100
11,Cc1cc(-c2ncnn2C)c2cccc(OCc3c(Cl)cc(F)cc3[C@H](C)N3C[C@@H](C)NC(=O)C3=O)c2n1 [compound 98],≤ 10
12,Cc1cc(-n2cc(F)cn2)c2cccc(OCc3c(Cl)cc(F)cc3[C@H](C)N3CCNC(=O)C3=O)c2n1 [compound 50],≤ 10
13,"Cc1cc(-n2cc(F)cn2)c2cccc(OCc3c(Cl)cc(F)cc3[C@H](C)N3CCN(C)CC3=O)c2n1 [Compound No. 9, (S)-1-(1-(3-chloro-5-fluoro-2-((4-(4-fluoro-1H-pyrazol-1-yl)-2-methylquinolin-8-yloxy)methyl)phenyl)ethyl)-4-methylpiperazin-2-one]",11 to 100
14,Cc1cc(-n2cc(F)cn2)c2cccc(OCc3c(Cl)cc(F)cc3[C@H](C)N3CCN(C(C)C)CC3=O)c2n1 [compound 76],≤ 10
15,CNC(=O)CN1C(=O)CN([C@@H](C)c2cc(F)cc(Cl)c2COc2cccc3c(-n4cc(F)cn4)cc(C)nc23)C1=O [compound 20],11 to 100
16,Cc1cc(-n2cc(F)cn2)c2cccc(OCc3c(Cl)cc(F)cc3[C@H](C)N3C[C@H](O)CCC3=O)c2n1 [compound 82],≤ 10
17,"Cc1cc(-c2ncnn2C)c2cccc(OCc3c(Cl)cc(F)cc3[C@H](C)N3CC[C@H](O)C3=O)c2n1 [Compound No. 4, (S)-1-((S)-1-(3-chloro-5-fluoro-2-((2-methyl-4-(1-methyl-1H-1,2,4-triazol-5-yl)quinolin-8-yloxy)methyl)phenyl)ethyl)-3-hydroxypyrrolidin-2-one]",≤ 10
18,Cc1cc(-n2cc(F)cn2)c2cccc(OCc3c(Cl)cc(F)cc3[C@H](C)N3CCN(C(=O)OC(C)(C)C)[C@H](C)C3=O)c2n1 [compound 79],101 to 500
19,"Cc1cc(-n2cc(F)cn2)c2cccc(OCc3c(Cl)cc(F)cc3[C@H](C)N3C[C@@H](C)N(C)C(=O)C3=O)c2n1 [Compound No. 11, (R)-1-((S)-1-(3-chloro-5-fluoro-2-((4-(4-fluoro-1H-pyrazol-1-yl)-2-methylquinolin-8-yloxy)methyl)phenyl)ethyl)-4,5-dimethylpiperazine-2,3-dione]",≤ 10
20,Cc1cc(-n2cc(F)cn2)c2cccc(OCc3c(Cl)cc(F)cc3[C@H](C)N3CC(=O)N(CC(=O)O)C3=O)c2n1 [compound 22],11 to 100
